Tests used:
[1] = tested on: phospho-ERK1/2 in A375 cells; test: cells; conditions: Homo sapiens, A-375, 3 h, read-out: A375 ICW IC50
Procedure: Human melanoma A375 cells were seeded at 50,000 cells per well in 100 μl growth medium in Costar 96 well black clear bottom plates and placed at 37° C./5% CO2 over night. Test compounds were diluted in DMSO to generate a concentration curve. A 5 mM stock was used for the highest concentration at 500 times; to yield a final concentration of 10 μM with 3-fold dilutions down to 0.0001 μM. 1 μl of diluted compound was added to 500 μl cell culture media and mixed well. Media was removed from cells and 200 μl of media containing compound was added. Cells were treated for 3 hrs with compound at 37° C., 5% CO2.
After the compound incubation, cells were washed once with PBS (Mg^++,Ca^++) and fixed in 4% paraformaldehyde/PBS for 1 hr at room temperature. Following fixation, cells were washed three times with PBS/0.1% TritonX-100(PBST), and then blocked with 5% skimmed milk/PBST, for 1-2 hr. 50 μL per well primary antibody was added (rabbit-anti-phospho-ERK1/2) at 1:500 in 5% skimmed milk/PBST and incubated overnight at 4° C. Cells were washed four times with 100 μl DELFIA wash buffer and 50 μL per well secondary antibody was added (DELFIA-EU-N1-labeled anti-rabbit antibody) at 1:3000 in DELFIA assay buffer and incubated for 2 hr at room temperature in the dark (covered). Cells were washed 4× with 100 μl DELFIA wash buffer. 50 μL per well Wallac-DELFIA enhancement solution was added. […]

[2] = biological target: activated MAP kinase 2/ERK2 (Homo sapiens (Human), UniProt P28482); test: biochemical
[3] = biological target: recombinant human activated BRAF (V599E) kinase (Homo sapiens (Human), UniProt P15056, V600E); test: biochemical
A375 cells = test: cells; conditions: Homo sapiens, A-375, 72 h, read-out: A375 XTT IC50 uM
Procedure: The cell viability assay in A375 cells (A375 ICW IC50 in Table 2) is set up in a 96-well plate format using XTT. XTT is a yellow tetrazolium salt that is cleaved to an orange formazan dye by the mitochondria of metabolically active cells. The procedure allows for rapid determination in a microtitre plate, to give reproducible and sensitive results.
A375 cells are grown in DMEM media containing 10% FBS and 1 mM sodium pyruvate. Cells are trypsinized and seeded at 1000 cells/well. After allowing the cells to adhere overnight, compound is added to the wells at the following final concentrations: 10, 3, 1, 0.3, 0.1, 0.03, 0.01, 0.001, and 0.0001 μM. The assay is set up in triplicates for each concentration. DMSO concentrations are kept at 0.5% /well. Three days after compound addition, the XTT assay is performed. Wells are washed once with PBS. 100 μL of DMEM media without phenol red or FBS is added to each well. […] 50 μL of the working solution of XTT is added to each well. […] The absorbance from wells with media and XTT alone, but without cells is considered the blank and subtracted from readings from all wells.
Percentage viability is calculated considering the blank subtracted value from wells treated with DMSO alone as 100% viable. IC50 values are calculated using Graphpad Prism, using non-linear regression curve fit for sigmoidal dose response (variable slope).

activated MAP kinase 2/ERK2, sequence (P28482 whole entry, looked up): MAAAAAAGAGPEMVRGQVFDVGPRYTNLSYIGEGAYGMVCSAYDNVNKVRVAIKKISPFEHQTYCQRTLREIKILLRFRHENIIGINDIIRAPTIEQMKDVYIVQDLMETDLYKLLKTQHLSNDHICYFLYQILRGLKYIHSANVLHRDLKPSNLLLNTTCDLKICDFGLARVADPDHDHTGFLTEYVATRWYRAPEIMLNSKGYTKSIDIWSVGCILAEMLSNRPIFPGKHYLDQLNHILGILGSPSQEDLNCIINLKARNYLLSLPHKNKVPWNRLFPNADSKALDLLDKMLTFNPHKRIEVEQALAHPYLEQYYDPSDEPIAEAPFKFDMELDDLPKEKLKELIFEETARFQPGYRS
recombinant human activated BRAF (V599E) kinase, sequence (P15056 417-766 V600E limits assumed): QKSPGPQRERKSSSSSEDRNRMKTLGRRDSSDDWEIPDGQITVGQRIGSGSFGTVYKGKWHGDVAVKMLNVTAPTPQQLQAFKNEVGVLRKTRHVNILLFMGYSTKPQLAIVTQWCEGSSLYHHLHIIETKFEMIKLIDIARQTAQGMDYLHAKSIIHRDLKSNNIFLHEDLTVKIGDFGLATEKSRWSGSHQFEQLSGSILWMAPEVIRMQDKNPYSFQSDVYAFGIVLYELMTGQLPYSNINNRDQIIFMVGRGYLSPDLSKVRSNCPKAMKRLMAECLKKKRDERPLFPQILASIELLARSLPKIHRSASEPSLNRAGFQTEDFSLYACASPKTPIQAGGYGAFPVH

Cc1nc2cnc3cc(F)c(-c4ccc(Oc5ncccn5)cc4Cl)cc3c2n1[C@H]1CCN(C(=O)CO)C[C@@H]1F [Example 1A, 1-((3S,4S)-4-(8-(2-chloro-4-(pyrimidin-2-yloxy)phenyl)-7-fluoro-2-methyl-1H-imidazo[4,5-c]quinolin-1-yl)-3-fluoropiperidin-1-yl)-2-hydroxyethanone]
IC50 [1]: 3.9 nM | inhibition at 10 µM [2]: 55% | inhibition at 10 µM [3]: 0% | IC50 (A375 cells): 0.003 µM

Source: US10011599B2 (priority 2013, dated 2018)
